Activity calls are given as the source filed them. Cut-off read from the data, not from the text of the source, for most assays here: actives have a measured EC50 and inactives only a lower limit. Some results are limits rather than exact numbers.

The nature of assay [1]: Luminescence Cell-Based Dose Confirmation HTS to Identify Inhibitors of Platelet Dense Granule Release. [Related pubchem assays: 1663 (Primary HTS), 1678 (Summary of Project)]. It is filed as functional.
Assay [2] addresses Luciferin 4-monooxygenase (Photinus pyralis, UniProt P08659). Nature of the assay: firefly luciferase enzyme inhibitors, dose response, biochemical, luminescence (AID 1891).
A short description of assay [3]: HEp-2 cell cytotoxicity, dose response, cytotoxicity control for RSV inhibitor project, HTS (AID 2410). Format: functional. To be noted: human respiratory syncytial virus.
The target of assay [4] is T1, Replicative DNA helicase DnaB (Mycobacterium tuberculosis, UniProt P9WMR3).
T1 sequence (P9WMR3 whole entry): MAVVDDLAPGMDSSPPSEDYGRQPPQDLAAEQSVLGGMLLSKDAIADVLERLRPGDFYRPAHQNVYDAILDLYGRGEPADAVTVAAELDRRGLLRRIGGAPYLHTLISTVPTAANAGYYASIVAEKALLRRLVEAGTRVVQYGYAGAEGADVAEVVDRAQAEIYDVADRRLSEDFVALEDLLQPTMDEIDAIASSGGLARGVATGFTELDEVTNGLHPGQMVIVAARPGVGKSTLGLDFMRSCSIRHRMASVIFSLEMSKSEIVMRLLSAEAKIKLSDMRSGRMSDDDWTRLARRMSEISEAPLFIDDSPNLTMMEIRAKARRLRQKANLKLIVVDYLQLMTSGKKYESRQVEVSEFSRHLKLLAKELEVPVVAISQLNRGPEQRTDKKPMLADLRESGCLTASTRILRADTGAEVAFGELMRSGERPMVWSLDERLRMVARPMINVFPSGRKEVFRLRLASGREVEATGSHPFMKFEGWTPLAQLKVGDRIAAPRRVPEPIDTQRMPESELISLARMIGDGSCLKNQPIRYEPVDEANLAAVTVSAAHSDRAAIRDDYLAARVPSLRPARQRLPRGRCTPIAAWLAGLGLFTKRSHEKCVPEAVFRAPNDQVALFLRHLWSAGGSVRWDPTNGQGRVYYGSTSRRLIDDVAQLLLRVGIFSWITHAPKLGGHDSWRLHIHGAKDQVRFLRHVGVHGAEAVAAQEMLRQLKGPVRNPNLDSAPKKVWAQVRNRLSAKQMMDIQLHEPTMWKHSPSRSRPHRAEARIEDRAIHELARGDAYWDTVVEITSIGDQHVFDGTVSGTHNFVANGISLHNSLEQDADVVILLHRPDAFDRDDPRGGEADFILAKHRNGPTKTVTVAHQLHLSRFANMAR
Nature of the assay: DnaB intein splicing inhibitors, dose response, biochemical, cell-free fluorescence (AID 449749). It is filed as functional.

In the next assay the target is T2, Protein RecA (Mycobacterium tuberculosis, UniProt P9WHJ3).
T2 sequence (P9WHJ3 whole entry): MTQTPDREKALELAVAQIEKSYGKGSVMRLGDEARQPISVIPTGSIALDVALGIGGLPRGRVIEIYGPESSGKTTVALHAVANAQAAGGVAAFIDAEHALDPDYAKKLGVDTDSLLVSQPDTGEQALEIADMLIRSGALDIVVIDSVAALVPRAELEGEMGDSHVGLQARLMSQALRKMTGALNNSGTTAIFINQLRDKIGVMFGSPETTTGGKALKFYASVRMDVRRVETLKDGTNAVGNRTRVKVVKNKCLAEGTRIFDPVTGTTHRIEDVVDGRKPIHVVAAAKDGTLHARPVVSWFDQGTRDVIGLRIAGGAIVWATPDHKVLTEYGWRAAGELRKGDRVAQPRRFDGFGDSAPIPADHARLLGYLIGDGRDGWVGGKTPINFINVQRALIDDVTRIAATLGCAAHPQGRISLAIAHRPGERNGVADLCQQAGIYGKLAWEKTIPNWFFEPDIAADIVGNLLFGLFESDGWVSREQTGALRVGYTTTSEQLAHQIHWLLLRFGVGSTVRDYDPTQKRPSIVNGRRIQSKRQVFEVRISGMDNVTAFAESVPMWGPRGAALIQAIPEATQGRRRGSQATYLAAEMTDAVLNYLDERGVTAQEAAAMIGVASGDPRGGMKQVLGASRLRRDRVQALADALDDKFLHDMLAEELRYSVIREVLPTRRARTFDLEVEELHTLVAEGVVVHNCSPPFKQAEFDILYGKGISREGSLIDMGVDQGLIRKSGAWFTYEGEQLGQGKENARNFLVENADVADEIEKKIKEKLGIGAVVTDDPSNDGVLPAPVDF
In words: Fluorescence Cell-Free Homogeneous Dose Retest to Identify Inhibitors of RecA-Intein Splicing Activity. [Related pubchem assays (depositor defined):AID2097, AID2223, AID489010, AID492950]. Format: functional.

The next assay relates to Streptococcus. Nature of the assay: Group A Streptococcus viability loss, dose response, counter-screen for streptokinase expression inhibitor project, luminescence, BacTiterGlo (AID 1915).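 Note: potency for reduction of bacterial viability or growth.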 Format: functional, organism-based.
The target of the next assay is T3, Streptokinase A (Streptococcus pyogenes serotype M1, UniProt P10520).
T3 sequence (P10520 whole entry): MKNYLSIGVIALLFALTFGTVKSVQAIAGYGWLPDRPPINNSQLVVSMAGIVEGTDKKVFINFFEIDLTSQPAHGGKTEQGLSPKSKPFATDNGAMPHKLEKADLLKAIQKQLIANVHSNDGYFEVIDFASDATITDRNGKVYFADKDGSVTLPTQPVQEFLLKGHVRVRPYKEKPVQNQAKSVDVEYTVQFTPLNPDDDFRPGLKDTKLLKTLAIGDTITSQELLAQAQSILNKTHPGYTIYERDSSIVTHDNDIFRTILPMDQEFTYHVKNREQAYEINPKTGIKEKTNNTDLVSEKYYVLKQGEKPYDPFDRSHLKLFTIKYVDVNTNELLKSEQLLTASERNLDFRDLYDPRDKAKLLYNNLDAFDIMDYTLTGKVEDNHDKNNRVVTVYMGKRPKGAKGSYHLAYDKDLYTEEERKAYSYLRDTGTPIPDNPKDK
Nature of the assay: S. pyogenes streptokinase expression inhibitors, potency, dose response, plasminogen activation absorbance, OD405 (AID 1914).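 Note: secreted streptokinase activity via plasminogen activation per viability signal from cell pellet.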 Format: functional, Streptococcus pyogenes M1 GAS.

The test system of assay [5] is Streptococcus sp. 'group A'. Nature of the assay: growth inhibition of control SK(-) GAS strain, dose response, counter-screen for streptokinase expression inhibitor project, luminescence, kanamycin, BacTiterGlo, confirmation (AID 1900). Format: functional, organism-based.
In assay [6] the target is T4, Rac GTPase-activating protein 1 (Homo sapiens, UniProt Q9H0H5).
T4 sequence (Q9H0H5 whole entry): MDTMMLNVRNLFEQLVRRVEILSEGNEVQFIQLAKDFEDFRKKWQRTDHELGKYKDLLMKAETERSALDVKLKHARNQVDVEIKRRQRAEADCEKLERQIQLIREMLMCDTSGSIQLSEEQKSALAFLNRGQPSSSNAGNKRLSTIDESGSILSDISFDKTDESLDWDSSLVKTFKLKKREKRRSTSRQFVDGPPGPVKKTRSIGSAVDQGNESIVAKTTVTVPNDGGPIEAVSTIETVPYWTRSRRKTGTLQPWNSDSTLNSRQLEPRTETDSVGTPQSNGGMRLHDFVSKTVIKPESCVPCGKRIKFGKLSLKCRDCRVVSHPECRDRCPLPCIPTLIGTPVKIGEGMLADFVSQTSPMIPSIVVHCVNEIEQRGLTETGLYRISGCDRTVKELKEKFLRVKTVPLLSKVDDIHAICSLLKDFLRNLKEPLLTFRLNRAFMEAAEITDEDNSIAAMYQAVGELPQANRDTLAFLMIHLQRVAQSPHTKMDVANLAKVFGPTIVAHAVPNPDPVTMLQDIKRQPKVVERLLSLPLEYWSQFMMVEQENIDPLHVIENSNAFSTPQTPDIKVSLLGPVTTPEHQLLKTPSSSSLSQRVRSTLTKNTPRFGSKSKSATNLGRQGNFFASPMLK
In words: MgcRacGAP GTPase-activating activity inhibitors, confirmation, biochemical, ADP Hunter fluorescence, primary and confirmatory (AID 624330). It is filed as functional.

Assay [7] can be described thus: inhibitors of intracellular T. cruzi replication, confirmation, NIH3T3 host cells, beta-gal luminescence (AID 2044).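 Note: intracellular parasites grown in NIH/3T3 mouse fibroblasts as host cells; luminescent beta-galactosidase reporter signal from transgenic T. cruzi replicating inside host cells; inhibitors lower the luminescence signal.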 It is filed as functional, cell-based.
The nature of assay [8]: cytotoxicity toward NIH3T3 fibroblasts, dose response, counter-screen, cell-based, ATP luminescence, mouse fibroblasts (AID 2010).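 Note: cells exposed to compound for about 90 hours before reading.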 Format: functional. For orientation: A counterscreen serves to expose hits that act by an unwanted route or on another target.
A further assay has as its target Cytochrome P450 2D6 (Homo sapiens, UniProt P10635).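 Note: CYP2D6 member of a cytochrome P450 panel assay.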

Sequence of Luciferin 4-monooxygenase (P08659 whole entry): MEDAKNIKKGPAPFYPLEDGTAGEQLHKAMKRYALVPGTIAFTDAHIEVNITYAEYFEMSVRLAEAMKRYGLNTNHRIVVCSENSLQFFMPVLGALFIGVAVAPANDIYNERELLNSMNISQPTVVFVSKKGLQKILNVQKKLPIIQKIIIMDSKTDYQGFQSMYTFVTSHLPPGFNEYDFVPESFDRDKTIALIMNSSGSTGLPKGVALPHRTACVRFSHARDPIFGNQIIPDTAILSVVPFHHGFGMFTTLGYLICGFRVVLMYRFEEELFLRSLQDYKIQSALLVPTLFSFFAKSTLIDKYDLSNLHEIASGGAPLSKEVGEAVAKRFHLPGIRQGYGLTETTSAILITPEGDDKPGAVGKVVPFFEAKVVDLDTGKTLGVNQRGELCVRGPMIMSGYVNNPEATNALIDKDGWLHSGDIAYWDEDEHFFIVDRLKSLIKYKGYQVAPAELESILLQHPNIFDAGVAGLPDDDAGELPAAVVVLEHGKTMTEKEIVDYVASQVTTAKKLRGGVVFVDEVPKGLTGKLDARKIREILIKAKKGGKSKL
Sequence of Cytochrome P450 2D6 (P10635 whole entry): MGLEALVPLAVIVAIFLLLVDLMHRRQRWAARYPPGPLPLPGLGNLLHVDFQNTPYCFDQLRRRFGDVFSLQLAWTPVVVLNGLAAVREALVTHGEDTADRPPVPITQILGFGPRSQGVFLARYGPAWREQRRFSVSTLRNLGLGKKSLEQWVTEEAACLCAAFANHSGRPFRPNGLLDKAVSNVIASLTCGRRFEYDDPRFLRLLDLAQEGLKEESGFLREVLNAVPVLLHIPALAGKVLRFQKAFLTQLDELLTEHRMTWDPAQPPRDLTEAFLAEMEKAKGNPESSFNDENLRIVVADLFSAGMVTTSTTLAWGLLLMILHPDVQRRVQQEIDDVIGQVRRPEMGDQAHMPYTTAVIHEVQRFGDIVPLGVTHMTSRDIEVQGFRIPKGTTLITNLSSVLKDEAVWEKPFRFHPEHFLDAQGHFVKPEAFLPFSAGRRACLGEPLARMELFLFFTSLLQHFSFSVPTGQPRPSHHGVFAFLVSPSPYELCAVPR

Broadly, the EC50 is the concentration giving half of the maximal effect. With `O=C(c1ccc(S(=O)(=O)Nc2ccccc2)cc1)N1CCCCCCC1`, the EC50 in [1] and in assay [2] was > 112 µM (not active) throughout. One may read the CC50 as the concentration that lowers cell viability or growth by half. On to `COc1cc2c(C(=O)N3CCOCC3)c(CSc3ccccc3)n(C)c2cc1Br`, for which the CC50 in assay [3] was 20.7 µM (active). For orientation: AC50 means the concentration at which the activity in the assay is half-maximal. For the molecule `COc1cc(C2C(C#N)=C(N)Oc3[nH]nc(C)c32)cc2c1OCO2` (configuration not stated), the AC50 in [4] is 2.11 µM (active). For the same molecule, on Protein RecA, the concentration giving a half-maximal response (EC50) is 1.38 µM (active).

In the case of `COc1ccc(CN2CCNC(=O)C2CC(=O)N(C)Cc2ccncn2)c(OC)c1` (configuration not stated), in assay [4], the AC50 is 89.1 µM (active). Besides, the EC50 on Protein RecA is 24.7 µM (active). `O=C(CN1C(=O)S/C(=C\C=C\c2ccccc2)C1=O)Nc1ccccc1C(=O)O`: the AC50 in assay [4] was 8.47 µM (active). Further, the EC50 with Streptococcus is 14.9 µM (active); at Streptokinase A it was 4.37 µM (active); in assay [5], 5.14 µM (active); on Protein RecA, 10.8 µM (active). As for `O=C(Nc1nnc(-c2cccnc2)s1)c1cccs1`, the values for the EC50 in assay [1] and in assay [2] were > 112 µM (not active) and 22.6 µM (active), respectively. `COc1ccc(/C=C2/C(=O)N(c3ccccc3)N=C2C)c(OC)c1`: in [4], the AC50 was 3.87 µM (active). Further, the EC50 on Protein RecA is 2.64 µM (active). One may read the IC50 as the concentration needed to halve the response being measured. Take `COc1cc(/C=C(\C#N)C(=O)c2c[nH]c3ccccc23)cc(OC)c1O`: in [6], the IC50 was 43.6 µM (active). The half-maximal activity concentration (AC50) in assay [4] is 1.26 µM (active). Moreover, the EC50 at Protein RecA is 1.18 µM (active). As for `Cc1ccc(-n2nc3c(=O)n(CCCC(=O)NCc4ccccc4Cl)nc(C)c3c2C)cc1`, the half-maximal cytotoxic concentration (CC50) in assay [3] was > 50 µM (active). Same read-out and setting: in the case of `CN(CC(=O)Nc1ccc(Cl)c(C(F)(F)F)c1)C(=O)c1cc(-c2ccncc2)nc2ccccc12` it was 20 µM (active); in that of `CCc1ccc(NS(=O)(=O)c2ccc3ncc(C(=O)N4CCc5ccccc54)c(O)c3c2)cc1`, > 50 µM (active).

Regarding `CCOC(=O)C1CCC2(CC1)C(C#N)=C(N)Oc1[nH]nc(C)c12` (configuration not stated), the AC50 in [4] was 53.1 µM (active). Also, the EC50 at Protein RecA was > 380 µM (inactive). Regarding `COc1ccc(-c2nc(-c3cc([N+](=O)[O-])ccc3C)c(-c3ccccc3)[nH]2)cc1O`, the CC50 in assay [3] was 15.1 µM (active).

Turning to `Cc1noc(O)c1N=Nc1ccc2[nH]c(O)nc2c1`, the CC50 in [3] was 22.4 µM (active). Turning to `Cc1ccc(C(=O)Nc2ccc(C)c(S(=O)(=O)N3CCOCC3)c2)c(C)c1`, the half-maximal effective concentration (EC50) in [1] and in assay [2] was > 112 µM (not active) in each case. With `CO/C(O)=C1/C(C)=NC2=C(C(=O)CCC2)C1c1cn(Cc2ccc(Br)cc2)nc1-c1ccccc1` (configuration not stated), in [3], the CC50 was 17.4 µM (active). On to `O=C(Oc1ccc(-c2nnco2)cc1)c1ccco1`, for which the AC50 in assay [4] is 17.6 µM (active). The EC50 on Protein RecA was 15.3 µM (active). As for `Cc1cccc(C2c3[nH]c4ccccc4c3CCN2Cc2cccn2-c2ncccn2)c1` (configuration not stated), the figures for the EC50 in [7] and in assay [8] were 0.647 µM (active) and 20.7 µM (active), respectively. The half-maximal cytotoxic concentration (CC50) in assay [3] is 20.4 µM (active). As for `NC(=O)CSc1cn(Cc2cccc(F)c2)c2ccccc12`, the EC50 in [1] and in assay [2] was > 112 µM (not active) each time.

`Brc1ccc(-c2nc(N/N=C/c3cccnc3)c3ccccc3n2)cc1`: the EC50 in [1] was 0.407 µM (active); in assay [2], 0.248 µM (active). As for `N#CC(c1ccc(Cl)cc1)N1CCOCC1` (configuration not stated), the EC50 in assay [1] and in [2] was > 112 µM (not active) each time. On to `COc1ccc(-c2nc(CSCC(=O)N3CCN(c4cccc(C)c4)C(C)C3)c(C)o2)cc1OC` (configuration not stated), for which the EC50 in assay [1] and in [2] was > 112 µM (not active) each time.

`CCCCCN1N=C(C)CC1=O`: the AC50 in assay [4] was 6.18 µM (active). The EC50 at Protein RecA is 2.79 µM (active). As to `COc1ccc(C(C)NC(=O)c2ccccc2Cl)cc1OC` (configuration not stated), the concentration for a half-maximal effect (EC50) in assay [1] and in assay [2] was > 112 µM (not active) throughout.

Consider `CC(=O)NC(c1ccc(Cl)cc1)c1c(O)ccc2ccc(O)cc12` (configuration not stated), for which the AC50 in [4] was > 120 µM (inactive). Also, on Protein RecA, the EC50 was 4.61 µM (active). For `CCOC(=O)c1sc(Nc2ccc(Br)cc2)nc1C`, the CC50 in assay [3] was 27.5 µM (active). Regarding `Cc1ccc(-c2c3c(nc4sc(C(N)=O)c(N)c24)CCC3)cc1`, the EC50 in assay [1] and in assay [2] was > 112 µM (not active) in each case. Also, at Cytochrome P450 2D6, the AC50 was 22.4 µM (inconclusive).

The record behind these values is ChEMBL document CHEMBL1201862, “PubChem BioAssay data set” (2004).
